# Results: patent US12568967B2, “Compositions comprising pyridine carboxylate herbicides with synthetic auxin herbicides or auxin transport inhibitors” (priority 2018, dated 2026)
# Tests used:
# [1] = test system: Cirsium arvense (Canadian thistle, CIRAR); assay: Greenhouse postemergence trial CIRAR; assay type: in vivo
# Experimental: (§1) Seeds of the desired test plant species were planted in a 90:10% v/v (volume/volume) mixture of PRO-MIX® BX (Premier Tech Horticulture, Quakertown, PA, USA) and PROFILE® GREENS GRADE™ (Profile Products LLC, Buffalo Grove, IL, USA) planting mixture, which typically has a pH of 5.2 to 6.2 and an organic matter content of at least 50 percent, in plastic pots with a surface area of 103.2 square centimeters (cm^2). […] The plants were grown for 7-36 days (d) in a greenhouse with an approximate 14-hour (h) photo-period which was maintained at about 23° C. during the day and 22° C. during the night. Nutrients and water were added on a regular basis and supplemental lighting was provided with overhead metal halide 1000-Watt lamps as necessary. The plants were employed for testing when they reached the second or third true leaf stage.
# (§2) Emulsifiable concentrates of each of each pyridine carboxylate herbicide (Compound A or Compound B) were prepared at 100 grams acid equivalent per liter (g ae/L). The emulsifiable concentrates also included a safener, cloquintocet-mexyl, at 120 grams active ingredient per liter (g ai/L), unless otherwise noted below. An aliquot of each emulsifiable concentrate was placed in a 25 mL glass vial and diluted with an aqueous mixture of 1.25% (v/v) ACTIROB® B esterified rapeseed oil (Bayer Crop Science, Research Triangle Park, NC, USA) or MSO® Concentrate with LECI-TECH® methylated soybean oil (Loveland Products, Loveland, CO, USA) to obtain concentrated stock solutions at the highest application rate for each herbicide, based upon a 12 milliliter (mL) application volume at a rate of 187 liters per hectare (L/ha). The concentrated stock solutions were further diluted with an aqueous mixture of 1.25% v/v ACTIROB® B or MSO® Concentrate with LECI-TECH® to obtain stock solutions at reduced application rates for each herbicide. Spray solutions of the herbicide combinations (Compound A or Compound B plus synthetic auxin herbicide or auxin transport inhibitor) were prepared by adding weighed amounts or aliquots of the synthetic auxin herbicide or auxin transport inhibitor to the stock solutions of Compound A or Compound B to form 12-mL spray solutions in two-way combinations.
# (§3) The spray solutions were applied to the plant material with an overhead Mandel track sprayer equipped with 8002E nozzles calibrated to deliver 187 L/ha over an application area of 0.503 square meters (m^2) at a spray height of 18 inches (43 centimeters (cm)) above the average plant canopy. Control plants were sprayed in the same manner with the solvent blank. All pyridine carboxylate herbicide (component a) application rates are given as “g ae/ha” and all synthetic auxin herbicide or auxin transport inhibitor (component b) application rates are given as “g ai/ha.”
# (§4) The treated plants and control plants were placed in a greenhouse as described above and watered by sub-irrigation to prevent wash-off of the test compounds. After 20-22 d, the condition of the test plants as compared with that of the control plants was determined visually and scored on a scale of 0 to 100 percent where 0 corresponds to no injury and 100 corresponds to complete kill.
# [2] = test system: Sinapis arvensis (wild mustard, SINAR); assay: Greenhouse postemergence trial SINAR; assay type: in vivo
# [3] = test system: Salsola kali (Russian thistle, SASKR); assay: Greenhouse postemergence trial SASKR; assay type: in vivo;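 note: greenhouse plants sprayed at second or third true leaf stage, injury rated by eye after 20-22 d against solvent-blank controls, 0 meaning no injury, 100 complete kill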
# [4] = test system: Kochia scoparia (kochia, KCHSC); assay: Greenhouse postemergence trial KCHSC; assay type: in vivo
# [5] = test system: Chenopodium album L. (common lambsquarters, CHEAL); assay: Greenhouse postemergence trial CHEAL; assay type: in vivo; conditions: chlorflurenol-methyl 140 g/ha;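 note: greenhouse plants sprayed at second to third true leaf stage, injury rated by eye after 20-22 d versus solvent-blank sprayed controls, 0 = no injury, 100 = complete kill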
# Experimental: (§5) The plants were grown for 7-36 days (d) in a greenhouse with an approximate 14-hour (h) photo-period which was maintained at about 23° C. during the day and 22° C. during the night. Nutrients and water were added on a regular basis and supplemental lighting was provided with overhead metal halide 1000-Watt lamps as necessary. The plants were employed for testing when they reached the second or third true leaf stage.
# (§6) The emulsifiable concentrates also included a safener, cloquintocet-mexyl, at 120 grams active ingredient per liter (g ai/L), unless otherwise noted below.
# (§7) Control plants were sprayed in the same manner with the solvent blank. All pyridine carboxylate herbicide (component a) application rates are given as “g ae/ha” and all synthetic auxin herbicide or auxin transport inhibitor (component b) application rates are given as “g ai/ha.”
# as §4
# [6] = test system: Amaranthus retroflexus (pigweed, AMARE); assay: Greenhouse postemergence trial AMARE; assay type: in vivo; conditions: chlorflurenol-methyl 140 g/ha;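 note: Greenhouse-grown plants sprayed at second to third true leaf stage, injury rated by eye after 20-22 d versus solvent-blank sprayed controls, 0 = no injury, 100 = complete kill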
# [7] = test system: Matricaria chamomilla (wild chamomile, MATCH); assay: Greenhouse postemergence trial MATCH; assay type: in vivo;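 note: greenhouse plants sprayed at second to third true leaf stage, injury rated by eye 20-22 d later versus solvent-blank controls on 0–100 scale, 0 no injury, 100 complete kill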
# Experimental: as §5, §6, §7, §4
# [8] = test system: Triticum aestivum (spring wheat, TRZAS); assay type: in vivo
# [9] = test system: Hordeum vulgare (spring barley, HORVS); assay type: in vivo
# [10] = test system: Brassica napus (spring rape, BRSNN); assay: Greenhouse postemergence trial BRSNN; assay type: in vivo
# Experimental: as §5, §6, §7, §4
# [11] = test system: Brassica napus (winter rape, BRSNW); assay: Greenhouse postemergence trial BRSNW; assay type: in vivo; conditions: Brassica napus, post-emergence, BRSNW; Picloram 20 g/ha; read-out: % visual injury Obs
# [12] = test system: Polygonum convolvulus (wild buckwheat, POLCO); assay: Greenhouse postemergence trial POLCO; assay type: in vivo; conditions: Fallopia convolvulus, post-emergence; POLCO; Picloram 20 g/ha; read-out: % visual injury Obs
# [13] = test system: Cyanus segetum (cornflower, CENCY); assay: Greenhouse postemergence trial CENCY; assay type: in vivo; conditions: Centaurea cyanus, post-emergence; CENCY; Picloram 20 g/ha; read-out: % visual injury Obs
# [14] = test system: Viola arvensis (field violet, VIOAR); assay: Greenhouse postemergence trial VIOAR; assay type: in vivo; conditions: Viola arvensis, post-emergence; VIOAR; Picloram 20 g/ha; read-out: % visual injury Obs
# [15] = test system: Veronica hederifolia (ivyleaf speedwell, VERHE); assay: Greenhouse postemergence trial VERHE; assay type: in vivo; conditions: Veronica hederifolia, post-emergence; VERHE; Picloram 20 g/ha; read-out: % visual injury Obs
# [16] = test system: Papaver rhoeas (corn poppy, PAPRH); assay: Greenhouse postemergence trial PAPRH; assay type: in vivo; conditions: Papaver rhoeas, post-emergence; PAPRH; Picloram 20 g/ha; read-out: % visual injury Obs
# Experimental: as §1, §2, §3, §4
# [17] = test system: Veronica persica (bird's-eye speedwell, VERPE); assay: Greenhouse postemergence trial VERPE; assay type: in vivo; conditions: Veronica persica, post-emergence; VERPE; Picloram 20 g/ha; read-out: % visual injury Obs
# Experimental: as §1, §2, §3, §4
# [18] = test system: Papaver rhoeas (corn poppy), herbicide-resistant (PAPRH-R); assay: Greenhouse postemergence trial PAPRH-R; assay type: in vivo; conditions: Papaver rhoeas, post-emergence; PAPRH-R; Picloram 20 g/ha; read-out: % visual injury Obs
# [19] = test system: Capsella bursa-pastoris (shepherd's purse, CAPBP); assay: Greenhouse postemergence trial CAPBP; assay type: in vivo; conditions: CAPBP
# [20] = test system: Stellaria media (chickweed, STEME); assay: Greenhouse postemergence trial STEME; assay type: in vivo; conditions: Stellaria media, post-emergence; STEME; Picloram 20 g/ha; read-out: % visual injury Obs
# [21] = test system: Anthemis arvensis (field chamomile, ANTAR); assay: Greenhouse postemergence trial ANTAR; assay type: in vivo; conditions: Anthemis arvensis, post-emergence; ANTAR; Picloram 20 g/ha; read-out: % visual injury Obs
# [22] = test system: Matricaria discoidea (pineapple weed, MATMT); assay: Greenhouse postemergence trial MATMT; assay type: in vivo; conditions: Matricaria discoidea, post-emergence; MATMT; Picloram 20 g/ha; read-out: % visual injury Obs
# [23] = test system: Matricaria inodora (false chamomile, MATIN); assay: Greenhouse postemergence trial MATIN; assay type: in vivo; conditions: MATIN
# [24] = test system: Triticum aestivum (winter wheat, TRZAW); assay: Greenhouse postemergence crop phytotoxicity TRZAW; assay type: in vivo; conditions: TRZAW; Picloram 20 g/ha
# Experimental: as §1, §2, §3, §4
# [25] = test system: Hordeum vulgare (winter barley, HORVW); assay: Greenhouse postemergence crop phytotoxicity HORVW; assay type: in vivo; conditions: HORVW; Picloram 20 g/ha
# Experimental: as §1, §2, §3, §4
# [26] = test system: Lamium purpureum (purple deadnettle, LAMPU); assay: Greenhouse postemergence trial LAMPU
# [27] = test system: Viola tricolor (wild pansy, VIOTR); assay: Greenhouse postemergence trial VIOTR;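 note: greenhouse plants sprayed at second to third true leaf stage, injury rated visually after 20-22 d against solvent-blank sprayed controls, 0 meaning no injury and 100 complete kill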
# Experimental: as §1, §2, §3, §4
smiles,measurement,setting,value
COC(=O)C1(O)c2ccccc2-c2ccc(Cl)cc21 (stereo not drawn) [Chlorflurenol-methyl],CIRAR Obs (% visual injury),[1]; chlorflurenol-methyl 140 g/ha,0%
same,SINAR Obs (% visual injury),[2]; chlorflurenol-methyl 140 g/ha,18%
same,SASKR Obs (% visual injury),[3]; chlorflurenol-methyl 140 g/ha,0%
same,KCHSC Obs (% visual injury),[4]; chlorflurenol-methyl 140 g/ha,0%
same,CHEAL Obs (% visual injury),[5],0%
same,AMARE Obs (% visual injury),[6],0%
same,MATCH Obs (% visual injury),[7]; chlorflurenol-methyl 140 g/ha,0%
same,TRZAS Obs (% visual injury),[8]; chlorflurenol-methyl 140 g/ha,0%
same,HORVS Obs (% visual injury),[9]; chlorflurenol-methyl 140 g/ha,0%
same,BRSNN Obs (% visual injury),[10]; chlorflurenol-methyl 140 g/ha,23%
Nc1c(Cl)c(Cl)nc(C(=O)O)c1Cl [Picloram],plant injury at 20 g/ha,[11],10%
same,pest or weed control at 20 g/ha,[12],40%
same,pest or weed control at 20 g/ha,"[1]; Cirsium arvense, post-emergence, CIRAR, Picloram 20 g/ha, read-out: % visual injury Obs",60%
same,pest or weed control at 20 g/ha,"[2]; Mutarda arvensis, post-emergence, SINAR, Picloram 20 g/ha, read-out: % visual injury Obs",30%
same,pest or weed control at 20 g/ha,"[3]; Salsola kali, post-emergence, SASKR, Picloram 20 g/ha, read-out: % visual injury Obs",30%
same,pest or weed control at 20 g/ha,"[4]; Bassia scoparia, post-emergence, KCHSC, Picloram 20 g/ha, read-out: % visual injury Obs",10%
same,% visual injury (Obs),"[4]; KCHSC, alone 10 g/ha",10%
same,pest or weed control at 20 g/ha,"[7]; Matricaria chamomilla, post-emergence, MATCH, Picloram 20 g/ha, read-out: % visual injury Obs",40%
same,% visual injury Obs,"[8]; TRZAS, Picloram 20 g/ha",0%
same,% visual injury (Obs),"[8]; TRZAS, alone 10 g/ha",0%
same,% visual injury Obs,"[9]; HORVS, Picloram 20 g/ha",0%
same,% visual injury (Obs),"[9]; HORVS, alone 10 g/ha",0%
same,pest or weed control at 20 g/ha,[13],60%
same,pest or weed control at 20 g/ha,[14],10%
same,pest or weed control at 20 g/ha,[15],10%
same,pest or weed control at 20 g/ha,[16],20%
same,pest or weed control at 20 g/ha,[17],10%
same,pest or weed control at 20 g/ha,[18],30%
same,% visual injury (Obs),[19]; alone 10 g/ha,10%
same,pest or weed control at 20 g/ha,"[19]; Capsella bursa-pastoris, post-emergence, Picloram 20 g/ha, read-out: % visual injury Obs",0%
same,pest or weed control at 20 g/ha,[20],10%
same,pest or weed control at 20 g/ha,[21],30%
same,pest or weed control at 20 g/ha,[22],10%
same,% visual injury (Obs),[23]; alone 10 g/ha,10%
same,pest or weed control at 20 g/ha,"[23]; Tripleurospermum inodorum, post-emergence, Picloram 20 g/ha, read-out: % visual injury Obs",30%
same,% visual injury Obs,[24],0%
same,% visual injury Obs,[25],0%
same,% visual injury (Obs),"[10]; BRSNN, alone 10 g/ha",8%
same,% visual injury (Obs),"[26]; LAMPU, alone 10 g/ha",10%
same,pest or weed control at 20 g/ha,"[26]; Lamium purpureum, post-emergence, read-out: % visual injury Obs",5%
same,% visual injury (Obs),"[27]; VIOTR, alone, 10 g/ha",10%
same,pest or weed control at 20 g/ha,"[27]; Viola tricolor, post-emergence, read-out: % visual injury Obs",10%
